Assay results published in US11572369B2, “Bicyclic pyridine compositions and methods of using the same for cancer therapy” (UNIVERSITY OF SOUTH CAROLINA, priority 2019, dated 2023).

Key:
Assay in all cases: KINOMEscan
Type in all cases: binding
Conditions in all cases: 2000 nM
TBK1 = target: T1, TBK1 (Homo sapiens, UniProt Q9UHD2)
T1 construct: DNA label (for qPCR read-out); purchased DiscoveRx (KINOMEscan scanMAX panel, contract assay)

SRPK1 = target: T2, SRPK1 (Homo sapiens, UniProt Q96SB4)
T2 construct: purchased KINOMEscan (DiscoveRx)

MUSK = target: T3, MUSK (Homo sapiens, UniProt O15146)
T3 construct: DNA label (for qPCR read-out); purchased KINOMEscan scanMAX panel (DiscoveRx)
T3 sequence (O15146 24-869): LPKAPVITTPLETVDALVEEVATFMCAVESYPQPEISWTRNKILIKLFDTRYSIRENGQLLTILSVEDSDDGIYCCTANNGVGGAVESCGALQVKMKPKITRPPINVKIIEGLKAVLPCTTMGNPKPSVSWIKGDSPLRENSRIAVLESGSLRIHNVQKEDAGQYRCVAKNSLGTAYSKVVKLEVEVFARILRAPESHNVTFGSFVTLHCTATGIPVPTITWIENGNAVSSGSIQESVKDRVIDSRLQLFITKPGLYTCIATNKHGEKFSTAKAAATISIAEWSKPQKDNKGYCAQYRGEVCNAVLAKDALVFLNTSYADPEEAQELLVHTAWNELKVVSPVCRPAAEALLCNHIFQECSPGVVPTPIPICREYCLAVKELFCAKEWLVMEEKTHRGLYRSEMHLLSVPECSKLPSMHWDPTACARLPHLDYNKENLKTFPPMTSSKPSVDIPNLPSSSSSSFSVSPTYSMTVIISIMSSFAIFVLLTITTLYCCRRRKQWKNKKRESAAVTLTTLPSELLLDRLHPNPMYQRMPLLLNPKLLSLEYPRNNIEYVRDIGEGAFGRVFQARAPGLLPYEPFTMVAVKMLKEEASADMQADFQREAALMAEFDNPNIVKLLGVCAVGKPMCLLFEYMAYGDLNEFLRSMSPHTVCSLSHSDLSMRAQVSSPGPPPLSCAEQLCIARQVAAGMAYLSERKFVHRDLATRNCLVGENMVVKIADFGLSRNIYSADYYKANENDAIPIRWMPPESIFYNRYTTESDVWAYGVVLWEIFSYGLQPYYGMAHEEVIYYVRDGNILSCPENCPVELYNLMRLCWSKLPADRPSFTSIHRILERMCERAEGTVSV

PIK3C2B = target: T4, PIK3C2B (Homo sapiens, UniProt O00750)
T4 construct: DNA label (for qPCR read-out); purchased DiscoveRx (KINOMEscan scanMAX service)

PIM3 = target: T5, PIM3 (Homo sapiens, UniProt Q86V86)
T5 construct: DNA label (qPCR read-out); purchased KINOMEscan (DiscoveRx) panel

MARK1 = MARK1 (Homo sapiens, UniProt Q9P0L2)
MST2 = target: T6, MST2 (Homo sapiens, UniProt Q13188)
T6 construct: DNA label (for qPCR read-out); purchased KINOMEscan scanMAX panel (DiscoveRx)

ICK = target: T7, ICK (Homo sapiens, UniProt Q9UPZ9)
T7 construct: DNA label (qPCR read-out); purchased KINOMEscan (DiscoveRx) ScanMAX panel

STK39 = target: T8, STK39 (Homo sapiens, UniProt Q9UEW8)
T8 construct: DNA label (for qPCR read-out); purchased DiscoveRx (KINOMEscan scanMAX panel, contract assay)

NEK10 = target: T9, NEK10 (Homo sapiens, UniProt Q6ZWH5)
T9 construct: DNA label (qPCR read-out); purchased KINOMEscan (ScanMAX panel service)

[1] = target: T10, JAK2(JH1domain-catalytic) (Homo sapiens, UniProt O60674)
T10 construct: JAK2(JH1domain-catalytic); DNA label (for qPCR read-out); purchased DiscoveRx (KINOMEscan scanMAX panel)

LIMK1 = target: T11, LIMK1 (Homo sapiens, UniProt P53667)
T11 construct: purchased KINOMEscan (DiscoveRx) panel service

ERBB4 = target: T12, ERBB4 (Homo sapiens, UniProt Q15303)
T12 construct: DNA label (qPCR read-out); purchased DiscoveRx (KINOMEscan ScanMAX panel)

CAMK1 = target: T13, CAMK1 (Homo sapiens, UniProt Q14012)
T13 construct: DNA label (qPCR read-out); purchased KINOMEscan (ScanMAX panel service)

[2] = target: T14, RSK2(Kin.Dom.2-C-terminal) (Homo sapiens, UniProt P51812)
T14 construct: RSK2(Kin.Dom.2); purchased DiscoveRx (KINOMEscan scanMAX panel)

PIM2 = target: T15, PIM2 (Homo sapiens, UniProt Q9P1W9)
T15 construct: DNA label (qPCR read-out); purchased KINOMEscan (DiscoveRx) panel

TRKB = target: T16, TRKB (Homo sapiens, UniProt Q16620)
T16 construct: DNA label (qPCR read-out); purchased KINOMEscan (DiscoveRx) ScanMAX panel

[3] = target: T17, RSK1(Kin.Dom.2-C-terminal) (Homo sapiens, UniProt Q15418)
T17 construct: RSK1(Kin.Dom.2); purchased DiscoveRx (KINOMEscan scanMAX panel)

AAK1 = target: T18, AAK1 (Homo sapiens, UniProt Q2M2I8)
T18 construct: DNA label (qPCR read-out); purchased DiscoverX (KINOMEscan service)
T18 sequence (Q2M2I8 whole entry): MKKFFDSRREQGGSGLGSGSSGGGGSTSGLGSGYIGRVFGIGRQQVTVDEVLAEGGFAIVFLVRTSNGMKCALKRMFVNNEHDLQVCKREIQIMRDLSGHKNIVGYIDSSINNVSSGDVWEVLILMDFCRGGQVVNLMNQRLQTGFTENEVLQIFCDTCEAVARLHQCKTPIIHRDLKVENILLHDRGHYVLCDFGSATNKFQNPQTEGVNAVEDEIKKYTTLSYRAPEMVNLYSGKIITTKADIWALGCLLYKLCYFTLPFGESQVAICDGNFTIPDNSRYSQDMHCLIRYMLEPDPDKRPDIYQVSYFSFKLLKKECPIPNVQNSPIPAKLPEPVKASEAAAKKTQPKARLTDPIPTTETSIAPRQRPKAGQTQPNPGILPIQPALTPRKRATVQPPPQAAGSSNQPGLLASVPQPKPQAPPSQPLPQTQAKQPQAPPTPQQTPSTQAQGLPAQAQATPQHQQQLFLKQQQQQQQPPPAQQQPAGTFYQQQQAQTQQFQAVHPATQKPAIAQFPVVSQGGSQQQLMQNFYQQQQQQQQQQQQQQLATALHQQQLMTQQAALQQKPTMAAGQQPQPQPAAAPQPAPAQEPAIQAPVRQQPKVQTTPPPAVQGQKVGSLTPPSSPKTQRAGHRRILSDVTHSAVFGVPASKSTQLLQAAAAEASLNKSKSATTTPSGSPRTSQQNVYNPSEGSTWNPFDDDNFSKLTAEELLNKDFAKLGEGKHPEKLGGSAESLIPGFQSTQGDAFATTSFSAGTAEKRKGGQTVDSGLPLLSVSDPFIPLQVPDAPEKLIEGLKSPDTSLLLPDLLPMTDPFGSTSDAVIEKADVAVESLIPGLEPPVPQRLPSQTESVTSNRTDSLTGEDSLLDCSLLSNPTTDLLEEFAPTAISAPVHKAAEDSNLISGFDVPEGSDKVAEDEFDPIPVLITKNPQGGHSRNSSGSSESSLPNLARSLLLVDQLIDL

CDK3 = target: T19, CDK3 (Homo sapiens, UniProt Q00526)
T19 construct: purchased DiscoverX (KINOMEscan service)
T19 sequence (Q00526 whole entry): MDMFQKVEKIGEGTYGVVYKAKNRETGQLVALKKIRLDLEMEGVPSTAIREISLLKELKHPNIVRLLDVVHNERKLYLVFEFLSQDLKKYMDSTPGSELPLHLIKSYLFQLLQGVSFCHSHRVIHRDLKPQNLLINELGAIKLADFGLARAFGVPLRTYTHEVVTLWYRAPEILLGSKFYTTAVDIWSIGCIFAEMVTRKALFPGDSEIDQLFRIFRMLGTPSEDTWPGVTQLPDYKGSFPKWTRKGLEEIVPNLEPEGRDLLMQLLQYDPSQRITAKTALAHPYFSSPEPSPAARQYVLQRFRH

PIK3CA(I800L) = target: T20, PIK3CA(I800L) (Homo sapiens, UniProt P42336, I800L)
T20 construct: DNA label; purchased DiscoveRx (KINOMEscan scanMAX panel)

MERTK = target: T21, MERTK (Homo sapiens, UniProt Q12866)
T21 construct: purchased DiscoveRx (KINOMEscan scanMAX panel, service)
T21 sequence (Q12866 21-999): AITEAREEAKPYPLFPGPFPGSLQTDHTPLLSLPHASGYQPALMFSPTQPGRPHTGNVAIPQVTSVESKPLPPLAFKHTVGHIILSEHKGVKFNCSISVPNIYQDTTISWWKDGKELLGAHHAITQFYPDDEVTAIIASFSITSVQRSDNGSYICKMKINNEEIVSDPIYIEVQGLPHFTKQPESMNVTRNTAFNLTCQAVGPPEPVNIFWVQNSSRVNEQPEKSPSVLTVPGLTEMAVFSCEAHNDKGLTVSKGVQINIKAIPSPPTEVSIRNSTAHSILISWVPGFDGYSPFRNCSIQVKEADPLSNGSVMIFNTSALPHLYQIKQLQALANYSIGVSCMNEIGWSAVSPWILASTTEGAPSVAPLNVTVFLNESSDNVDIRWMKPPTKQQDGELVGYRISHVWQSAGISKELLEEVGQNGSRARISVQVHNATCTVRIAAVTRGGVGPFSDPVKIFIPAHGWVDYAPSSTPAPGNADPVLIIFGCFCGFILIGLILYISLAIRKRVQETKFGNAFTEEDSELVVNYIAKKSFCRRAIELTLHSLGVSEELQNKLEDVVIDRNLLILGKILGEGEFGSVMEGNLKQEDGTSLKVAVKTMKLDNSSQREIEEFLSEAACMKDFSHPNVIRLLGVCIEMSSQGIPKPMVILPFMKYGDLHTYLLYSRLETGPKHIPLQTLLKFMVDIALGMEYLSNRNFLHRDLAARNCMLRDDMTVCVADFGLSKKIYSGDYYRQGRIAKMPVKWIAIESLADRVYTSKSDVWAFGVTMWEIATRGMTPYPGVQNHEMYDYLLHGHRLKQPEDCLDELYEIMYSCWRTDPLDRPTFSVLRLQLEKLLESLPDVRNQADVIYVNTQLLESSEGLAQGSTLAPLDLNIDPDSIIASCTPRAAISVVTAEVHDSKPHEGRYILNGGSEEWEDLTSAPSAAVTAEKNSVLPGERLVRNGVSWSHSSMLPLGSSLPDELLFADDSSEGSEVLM

TNIK = target: T22, TNIK (Homo sapiens, UniProt Q9UKE5)
T22 construct: DNA label (qPCR read-out); purchased KINOMEscan (DiscoveRx) ScanMAX panel

EPHB2 = target: T23, EPHB2 (Homo sapiens, UniProt P29323)
T23 construct: purchased DiscoveRx (KINOMEscan scanMAX panel)
T23 sequence (P29323 19-1055): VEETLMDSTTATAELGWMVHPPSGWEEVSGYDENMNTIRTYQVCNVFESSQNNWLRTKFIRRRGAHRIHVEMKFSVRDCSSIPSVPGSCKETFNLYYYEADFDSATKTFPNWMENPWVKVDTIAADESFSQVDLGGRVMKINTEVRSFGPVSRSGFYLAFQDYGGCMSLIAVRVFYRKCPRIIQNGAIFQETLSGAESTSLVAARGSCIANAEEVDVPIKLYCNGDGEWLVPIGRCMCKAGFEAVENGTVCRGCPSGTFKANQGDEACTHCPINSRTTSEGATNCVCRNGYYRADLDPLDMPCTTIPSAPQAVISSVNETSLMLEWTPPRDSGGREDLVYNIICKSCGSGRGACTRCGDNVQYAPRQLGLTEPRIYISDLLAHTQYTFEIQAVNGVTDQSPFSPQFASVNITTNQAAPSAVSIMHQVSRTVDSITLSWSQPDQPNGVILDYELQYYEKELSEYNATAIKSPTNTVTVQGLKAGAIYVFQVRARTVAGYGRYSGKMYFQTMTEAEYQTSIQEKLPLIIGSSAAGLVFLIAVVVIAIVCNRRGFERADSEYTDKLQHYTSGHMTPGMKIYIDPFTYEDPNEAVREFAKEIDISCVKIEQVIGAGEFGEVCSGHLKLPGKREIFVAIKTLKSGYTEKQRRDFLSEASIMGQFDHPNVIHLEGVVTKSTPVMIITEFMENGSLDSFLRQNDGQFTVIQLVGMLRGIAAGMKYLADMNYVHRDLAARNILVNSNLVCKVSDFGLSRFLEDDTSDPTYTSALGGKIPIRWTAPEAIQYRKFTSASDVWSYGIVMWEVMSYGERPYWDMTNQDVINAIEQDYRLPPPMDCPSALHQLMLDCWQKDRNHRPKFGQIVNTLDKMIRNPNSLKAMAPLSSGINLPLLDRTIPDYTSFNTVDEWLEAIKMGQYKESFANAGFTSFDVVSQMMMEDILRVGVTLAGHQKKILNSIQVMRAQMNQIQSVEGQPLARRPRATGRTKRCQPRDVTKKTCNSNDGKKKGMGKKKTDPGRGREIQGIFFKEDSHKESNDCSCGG

RIPK5 = target: T24, RIPK5 (Homo sapiens, UniProt Q6XUX3)
T24 construct: DNA label (qPCR read-out); purchased DiscoveRx (KINOMEscan ScanMAX panel)

MAP3K1 = target: T25, MAP3K1 (Homo sapiens, UniProt Q13233)
T25 construct: DNA label (qPCR read-out); purchased DiscoverX (KINOMEscan service)

CSNK1D = target: T26, CSNK1D (Homo sapiens, UniProt P48730)
T26 construct: DNA label (qPCR read-out); purchased DiscoverX (assay service)
T26 sequence (P48730 whole entry): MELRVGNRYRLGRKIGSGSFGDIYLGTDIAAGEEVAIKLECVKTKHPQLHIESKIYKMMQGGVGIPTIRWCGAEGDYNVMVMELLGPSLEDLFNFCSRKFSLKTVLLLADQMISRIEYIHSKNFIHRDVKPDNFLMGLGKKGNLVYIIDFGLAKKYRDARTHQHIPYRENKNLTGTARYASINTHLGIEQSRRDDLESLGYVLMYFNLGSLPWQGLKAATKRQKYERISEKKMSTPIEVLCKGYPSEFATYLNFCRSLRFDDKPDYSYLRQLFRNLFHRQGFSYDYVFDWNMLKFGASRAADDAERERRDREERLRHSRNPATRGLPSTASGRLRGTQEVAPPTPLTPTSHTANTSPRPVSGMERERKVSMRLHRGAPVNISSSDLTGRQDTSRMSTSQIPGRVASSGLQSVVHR

KIT-autoinhibited = target: T27, KIT-autoinhibited (Homo sapiens, UniProt P10721)
T27 construct: purchased KINOMEscan (DiscoveRx) panel service
T27 sequence (P10721 544-976 limits assumed): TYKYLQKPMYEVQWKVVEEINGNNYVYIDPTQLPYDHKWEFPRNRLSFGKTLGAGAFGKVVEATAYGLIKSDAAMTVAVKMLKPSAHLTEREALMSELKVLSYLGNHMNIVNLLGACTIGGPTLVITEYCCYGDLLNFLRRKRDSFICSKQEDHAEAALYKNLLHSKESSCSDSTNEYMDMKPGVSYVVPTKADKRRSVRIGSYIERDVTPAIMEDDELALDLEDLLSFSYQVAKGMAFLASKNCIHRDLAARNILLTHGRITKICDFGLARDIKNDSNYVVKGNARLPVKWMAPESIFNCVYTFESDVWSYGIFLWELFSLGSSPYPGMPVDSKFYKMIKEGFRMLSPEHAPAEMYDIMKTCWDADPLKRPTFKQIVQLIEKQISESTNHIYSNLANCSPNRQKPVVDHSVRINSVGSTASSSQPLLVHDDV

CAMKK2 = target: T28, CAMKK2 (Homo sapiens, UniProt Q96RR4)
T28 construct: DNA label (qPCR read-out); purchased KINOMEscan (ScanMAX panel service)

KIT(A829P) = target: T29, KIT(A829P) (Homo sapiens, UniProt P10721, A829P)
T29 construct: DNA label (for qPCR read-out); purchased DiscoveRx (KINOMEscan scanMAX panel)

CDC2L1 = target: T30, CDC2L1 (Homo sapiens, UniProt P21127)
T30 construct: DNA label (qPCR read-out); purchased KINOMEscan (ScanMAX panel service)

CHEK1 = target: T31, CHEK1 (Homo sapiens, UniProt O14757)
T31 construct: DNA label (for qPCR read-out); purchased DiscoveRx (KINOMEscan scanMAX service)

MST3 = target: T32, MST3 (Homo sapiens, UniProt Q9Y6E0)
T32 construct: DNA label (for qPCR read-out); purchased KINOMEscan scanMAX panel (DiscoveRx)

GAK = target: T33, GAK (Homo sapiens, UniProt O14976)
T33 construct: purchased KINOMEscan (DiscoveRx)

SMILES	% Ctrl (TBK1) [% Ctrl]	% Ctrl (SRPK1) [% Ctrl]	% Ctrl (MUSK) [% Ctrl]	% Ctrl (PIK3C2B) [% Ctrl]	% Ctrl (PIM3) [% Ctrl]	% Ctrl (MARK1) [% Ctrl]	% Ctrl (MST2) [% Ctrl]	% Ctrl (ICK) [% Ctrl]	% Ctrl (STK39) [% Ctrl]	% Ctrl (NEK10) [% Ctrl]	% Ctrl [1] [% Ctrl]	% Ctrl (LIMK1) [% Ctrl]	% Ctrl (ERBB4) [% Ctrl]	% Ctrl (CAMK1) [% Ctrl]	% Ctrl [2] [% Ctrl]	% Ctrl (PIM2) [% Ctrl]	% Ctrl (TRKB) [% Ctrl]	% Ctrl [3] [% Ctrl]	% Ctrl (AAK1) [% Ctrl]	% Ctrl (CDK3) [% Ctrl]	further results
[2H]C([2H])([2H])N(C(=O)c1ccc(N2CCCN(c3ccnc4sc(C(N)=O)c(N)c34)CC2)cc1)C([2H])([2H])[2H] [15u_D6, 3-amino-4-(4-(4-(bis(methyl-d3)carbamoyl)phenyl)-1,4-diazepan-1-yl)thieno[2,3-b]pyridine-2-carboxamide]	97	97	82	87	98	100	84	66	94	61	93	100	100	95	92	89	78	86	90	97	% Ctrl (PIK3CA(I800L)): 74 % Ctrl; % Ctrl (MERTK): 100 % Ctrl; % Ctrl (TNIK): 91 % Ctrl; % Ctrl (EPHB2): 95 % Ctrl; % Ctrl (RIPK5): 72 % Ctrl; % Ctrl (MAP3K1): 90 % Ctrl; % Ctrl (CSNK1D): 22 % Ctrl; % Ctrl (KIT-autoinhibited): 90 % Ctrl; % Ctrl (CAMKK2): 87 % Ctrl; % Ctrl (KIT(A829P)): 51 % Ctrl; % Ctrl (CDC2L1): 100 % Ctrl; % Ctrl (CHEK1): 100 % Ctrl; % Ctrl (MST3): 84 % Ctrl; % Ctrl (GAK): 94 % Ctrl
CN(C)C(=O)c1ccc(N2CCCN(c3ccnc4sc(C(N)=O)c(N)c34)CC2)cc1 [15u, 3-amino-4-(4-(4-(dimethylcarbamoyl)phenyl)-1,4-diazepan-1-yl)thieno[2,3-b]pyridine-2-carboxamide]	99	100	94	89	89	100	100	84	93	93	100	100	85	83	94	85	88	100	94	92	% Ctrl (PIK3CA(I800L)): 97 % Ctrl; % Ctrl (MERTK): 89 % Ctrl; % Ctrl (TNIK): 100 % Ctrl; % Ctrl (EPHB2): 99 % Ctrl; % Ctrl (RIPK5): 100 % Ctrl; % Ctrl (MAP3K1): 84 % Ctrl; % Ctrl (CSNK1D): 20 % Ctrl; % Ctrl (KIT-autoinhibited): 90 % Ctrl; % Ctrl (CAMKK2): 100 % Ctrl; % Ctrl (KIT(A829P)): 97 % Ctrl; % Ctrl (CDC2L1): 63 % Ctrl; % Ctrl (CHEK1): 94 % Ctrl; % Ctrl (MST3): 97 % Ctrl; % Ctrl (GAK): 88 % Ctrl
